We go through one molecule from publication PMC10095193, “Myokine Musclin Is Critical for Exercise-Induced Cardiac Conditioning” (International Journal of Molecular Sciences, 2023).

This series can be described thus: Synthetic musclin peptide plasma elimination half-life and volume of distribution (NMR of plasma after jugular vein injection). The series is classed as in vivo, mouse. As for the experimental part: The musclin [^13C,^15N-A26-V27]-labeled peptide sequence used was as follows: […], corresponding to amino acids 80–112; GenBank accession no. AAS87598.1 (Bio-synthesis, Inc. Lewisville, TX, USA). A peptide was synthesized with 98% purity, counter-ion exchange (TFA to Cl), and pH adjustment (Bio-synthesis, Inc. Lewisville, TX, USA).
For infusion, 1.7 mg of the chemically synthesized [^13C,^15N-A26-V27]-labeled musclin peptide was dissolved in 300 µL of PBS. This musclin solution was injected into the jugular vein. A 100 µL blood sample was then drawn from the carotid artery at 1, 3, 5, 7, 10, and 15 min after the peptide infusion. Blood was mixed with 5 µL of 10% NaEDTA and 1 µL of peptidase inhibitor cocktail (Sigma, St. Louis, MI, USA) and kept on ice, then centrifuged at 4 °C for 45 min at 14,000 rpm. Plasma was removed and stored at −80 °C for NMR studies.
All NMR spectra were acquired at 5 °C on a Bruker Avance II 800 MHz NMR spectrometer equipped with a TCI cryoprobe. 100 µL of plasma (see above) was added 150 µL NMR buffer containing 50 mM sodium phosphate, pH 7.1 with a final volume of 250 µL in 8.5% D2O/91.5% H2O. This sample was then transferred to a Shigemi NMR tube for NMR studies. One-dimensional (1D) ^1H, two-dimensional (2D) ^15N/^1H-heteronuclear single-quantum correlation (HSQC), 2D ^13C/^1H-HSQC with constant time experiment (HSQC-CT), and 2D ^15N/^1H-slice of the three-dimensional (3D) HNCO experiment were acquired for each blood sample drawn at different times after peptide infusion. The collected NMR data were processed using NMRPipe and analyzed using NMRView. The musclin peptide concentration present in these blood samples was calibrated by using a known amount of chemically synthesized [^13C,^15N-A26-V27]-labeled musclin peptide. The peak intensity of these acquired NMR spectra was measured and fitted to the equation for half-life in exponential decay using GraphPad Prism (GraphPad Software version 9.4.1).

Usually half-life stands for the time needed for the level to fall by half in the phase considered. A word on the Vd: it is a proportionality between amount in the body and measured concentration, not a real space.

SMILES strings stand for the structures. Residues, ends and D or L forms follow the SMILES beside them.

For `CC(C)C[C@H](NC(=O)[C@H](CCCNC(=N)N)NC(=O)[C@H](CC(=O)O)NC(=O)[C@H](CC(C)C)NC(=O)[C@@H]1CCCN1C(=O)[C@H](CO)NC(=O)CNC(=O)[C@H](Cc1ccccc1)NC(=O)CNC(=O)[C@H](CO)NC(=O)[C@H](Cc1ccccc1)NC(=O)[C@@H](N)CO)C(=O)N[C@@H](CO)C(=O)N[C@@H](C)C(=O)NCC(=O)N[C@@H](CO)C(=O)N[C@H](C(=O)N[C@@H](CCC(=O)O)C(=O)N[C@@H](Cc1c[nH]cn1)C(=O)N[C@@H](CCCNC(=N)N)C(=O)NCC(=O)N[C@@H](CCCCN)C(=O)N[C@@H](CCC(N)=O)C(=O)N[C@@H](CCCNC(=N)N)C(=O)N[C@@H](CCCCN)C(=O)N[C@@H](C)C(=O)N[C@H](C(=O)N[C@@H](CC(=O)O)C(=O)N[C@@H](Cc1c[nH]cn1)C(=O)N[C@@H](CO)C(=O)N[C@@H](CCCCN)C(=O)N[C@@H](CCCCN)C(=O)N[C@@H](CCCNC(=N)N)C(=O)O)C(C)C)C(C)C` (H-SFSGFGSPLDRLSAGSVEHRGKQRKAVDHSKKR-OH; N-terminus and C-terminus assumed), under “calculated for a mouse of 27 g”, the “Cl, clearance = Ke × Vd” value is on record as 1.71 mL/min. Under “in vivo, iv, mouse, 1.7 mg i.v. (jugular vein), NMR calibrated with known amount of labeled peptide, read-out: initial plasma concentration”, the C0 was found to be 36 µM. The half-life (in vivo, iv, mouse, 1.7 mg in 300 µL PBS injected into jugular vein, carotid artery blood at 1, 3, 5, 7, 10, 15 min, plasma NMR at 5 °C, HNCO (2D) peak intensities fitted to exponential decay, read-out: plasma elimination half-life (t ½)) stood at 4.6 min. For the setting “mouse of 31 g, Vd = administered dose/initial concentration, 1.7 mg i.v. (jugular vein)”, the “volume of distribution (Vd) per g body weight” value is on record as 0.419 ml/g of BW. For the same molecule, where the note is “mouse, i.v. (jugular vein)”, the “Ke, elimination rate = 0.693/T1/2” value was 0.151 min⁻¹. The molecule also yielded a Vd (mouse, in vivo, iv, for mice of 31 g, 1.7 mg/0.131 mg/mL) of 0.013 L.
